The Cmax is the peak of the concentration-time curve. One may read the pKa as the negative logarithm of the acid dissociation constant.

Counter-ions that a name gives are not always drawn.

This is an account of results in PMC10218007, “Potential Clinically Relevant Effects of Sialylation on Human Serum AAG-Drug Interactions Assessed by Isothermal Titration Calorimetry: Insight into Pharmacoglycomics?” (International Journal of Molecular Sciences, 2023).

The conditions of data set [1]: ref 46 lidocaine, 47 diltiazem, 48 clindamycin, 49 warfarin, cited from earlier work; for Cmax: usual therapeutic peak plasma level.
In data set [2] the target is AAG+s. The conditions noted are these: log Ka = log (1/KD), KD in M; ref (2) lidocaine, (3) warfarin, (4) clindamycin; cited from earlier work.
In data set [3] the target is Desialylated human AAG (AAG − s) (Homo sapiens, UniProt P02763). As to the kind of experiment: ITC titration of desialylated AAG (AAG − s) with drugs. In kind it is binding. To be noted: 310 K. As to the method: (§1) All chemicals were used without further purification. Immobilized SialEXO® (derived from Akkermansia muciniphilla and expressed in E. Coli) was obtained from Smart Enzymes™ Genovis (Lund, Sweden), and HEPES buffer was obtained from VWR International (Leuven, Belgium). All other reagents were of analytical grade or better. All solutions were prepared immediately before the experiments in order to minimize contamination and/or impair the stability of solutions. The solutions for microcalorimetric titrations were prepared in 25 mM HEPES at pH 7.40 containing 150 mM NaCl (Kemika, Zagreb, Croatia), using doubly distilled water and 5 M NaOH (Kemika, Zagreb, Croatia) for adjusting the pH value. AAG and drug solutions were prepared by dissolving the appropriate amount of solid in the given solvent.
The ITC titrations were performed on a MicroCal PEAQ–ITC calorimeter (Malvern Panalytical Ltd., Malvern, UK). The solutions were thoroughly degassed beforehand, under vacuum to avoid any formation of bubbles that might be present in the sample cell. All microcalorimetric measurements were performed at 37 °C. […]
(§2) All ITC data were analyzed with MicroCal PEAQ-ITC Analysis Software 1.30 using the One Set Sites Fitting Model. […] All p values were calculated using the t-test() function in Microsoft Excel (Microsoft Corporation, Redmond, WA, USA).

Data set [4] relates to AAG + s or AAG − s. To be noted: calculated; for Decrease of free drug concentration, AAG − s vs AAG + s, in the presence of HSA: with 0.64 mM HSA, depending on the conditions. An excerpt:
AAG is an acute-phase protein with variable concentration in plasma and this consequently affects the free drug concentration. Hyperquad simulation and speciation software (HySS 4.0.31) was used to calculate the fraction of free vs. bound drug by solving the mass balance equations using the measured binding affinities. […] The plasma concentrations of the drug vary over time depending on the dosing regimen, and steady–state concentrations were used in the model.
In addition to AAG, human serum albumin (HSA) also plays a critical role in drug binding due to its high plasma concentration. Therefore, to obtain more realistic estimates, the free drug concentration was calculated taking into account the available data on the binding of the studied drugs to HSA.

For data set [5] the following is noted: cited from earlier work; for pKa: ref (5) lidocaine and diltiazem, (6) clindamycin, (7) warfarin.
The target in data set [6] is Native human AAG (AAG + s) (Homo sapiens, UniProt P02763). Nature of the data set: ITC titration of native AAG (AAG + s) with drugs. In kind it is binding. The conditions noted are these: 310 K. As to the method:
as §1
The ITC titrations were performed on a MicroCal PEAQ–ITC calorimeter (Malvern Panalytical Ltd., Malvern, UK). The solutions were thoroughly degassed beforehand, under vacuum to avoid any formation of bubbles that might be present in the sample cell. All microcalorimetric measurements were performed at 37 °C. The volume of the sample cell was approximately 200 μ L and the volume of the burette (syringe) was 42 μ L. Each titration was performed in duplicate or triplicate. Blank experiments were performed to estimate corrections for the dilution heat.
AAG solution (100 – 200 μ M) was loaded into the sample cell using a calibrated syringe (1 mL Hamilton) and titrated with 1 – 2 mM drug solutions. The sample cell was continuously stirred at 700 rpm. Differential power (DP) is arbitrarily applied to each titration. The interval between successive injections was 200 s, which is long enough for the signal to return to its baseline and to ensure equilibrium after each addition. Double distilled water was present in the reference cell during all experiments. To correct for the thermal effect, control titrations were performed for drug solution in buffer under the same conditions as the AAG–drug titrations and dilution heat was subtracted from the AAG–drug titration data.
as §2
In general terms: In ITC the heat of successive injections is recorded.

Sequence of Native human AAG (AAG + s) (P02763 19-201): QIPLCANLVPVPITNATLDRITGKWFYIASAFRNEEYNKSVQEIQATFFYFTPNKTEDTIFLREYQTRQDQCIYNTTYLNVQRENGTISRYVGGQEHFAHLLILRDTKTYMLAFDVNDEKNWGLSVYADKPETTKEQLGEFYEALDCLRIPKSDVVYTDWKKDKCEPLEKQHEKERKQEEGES
Sequence of Desialylated human AAG (AAG − s) (P02763 19-201): as above

Turning to `CC(=O)CC(c1ccccc1)c1c(O)c2ccccc2oc1=O` (stereo not shown) [Warfarin, Warfarin sodium salt], the Cmax in data set [1] was 9.08 µM. Further, in data set [2], the “Reference AAG+s log KA” value is listed as 5.34. In addition, the “N (number of drug binding sites), AAG − s” value in data set [3] was 0.795 ± 0.0290. The “Decrease of free drug concentration, AAG − s vs AAG + s, in the presence of HSA” value in data set [4] is given as 10% to 40. Further, the pKa in data set [5] is recorded as 4.99. In data set [6], the “N (number of drug binding sites), AAG + s” value turned out to be 0.654 ± 0.117 and the “Δr S°, AAG + s” value is reported as −191± 5.42 J K^−1 mol^−1.

As to clindamycin phosphate, the “Fraction present in protonated form” value in data set [5] (at the measured pH (7.40)) is on record as “about 30%”.

Turning to `CCN(CC)CC(=O)Nc1c(C)cccc1C` [Lidocaine, lidocaine], the Ctrough in data set [1] (usual therapeutic trough plasma level) is on record as 6.40 µM. Besides, in data set [4], the “Decrease of free drug concentration, AAG − s vs AAG + s, in the presence of HSA” value is on record as 10% to 40.

Turning to `COc1ccc([C@@H]2Sc3ccccc3N(CCN(C)C)C(=O)[C@@H]2OC(C)=O)cc1` [Diltiazem, diltiazem hydrochloride], in data set [1], the Cmax is 0.44 µM. For the same compound, the “N (number of drug binding sites), AAG − s” value in data set [3] is 0.868 ± 0.0290. The “Decrease of free plasma concentration with AAG − s vs AAG + s” value in data set [4] (AAG only, no HSA) was 20–30%. Besides, the pKa in data set [5] is on record as 8.03. Further, in data set [6], the “N (number of drug binding sites), AAG + s” value is on record as 0.804 ± 0.238 and the “Δr S°, AAG + s” value is given as 7.80 ± 1.74 J K^−1 mol^−1.
